Data on 4 compounds can be found in PMC7801405, “Structure, substrate specificity, and catalytic mechanism of human D-2-HGDH and insights into pathogenicity of disease-associated mutations” (Cell Discovery, 2021).

The target of experiment [1] is T1, D-2-hydroxyglutarate dehydrogenase (D-2-HGDH) (Homo sapiens, UniProt Q8N465).
T1 construct: gene D2HGDH
T1 sequence (Q8N465 51-521): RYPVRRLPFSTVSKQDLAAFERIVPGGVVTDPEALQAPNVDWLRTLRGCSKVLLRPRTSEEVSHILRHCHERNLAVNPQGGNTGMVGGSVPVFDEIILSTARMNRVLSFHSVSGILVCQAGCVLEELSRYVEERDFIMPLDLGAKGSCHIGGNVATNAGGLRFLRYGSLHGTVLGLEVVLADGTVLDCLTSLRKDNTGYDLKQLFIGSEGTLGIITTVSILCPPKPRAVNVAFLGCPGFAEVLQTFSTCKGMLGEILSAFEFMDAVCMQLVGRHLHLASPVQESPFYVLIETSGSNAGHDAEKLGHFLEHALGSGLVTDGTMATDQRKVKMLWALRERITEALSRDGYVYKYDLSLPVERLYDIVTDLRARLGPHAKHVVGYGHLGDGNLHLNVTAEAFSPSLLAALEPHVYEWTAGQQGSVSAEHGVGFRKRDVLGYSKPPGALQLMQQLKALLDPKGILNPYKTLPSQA
Put plainly: crystal structure ([…] Å), SPR, enzyme kinetics. The class given is binding.

Experiment [2] concerns the target T1, D-2-hydroxyglutarate dehydrogenase (D-2-HGDH). Put plainly: crystal structure ([…] Å), SPR, enzyme kinetics. In kind it is binding. This is another data set of the same source.
Experiment [3] shares this target. Put plainly: crystal structure ([…] Å); SPR with DTT-treated protein (reduced FAD); no measurable binding to the untreated protein.
The target is the same in experiment [4]. Put plainly: crystal structure ([…] Å), SPR, enzyme kinetics. The class given is binding. The source holds these as a separate data set.

As for `O=C(O)CC[C@@H](O)C(=O)O` [D-2-HG, D-2-hydroxyglutarate], the Kd in experiment [1] is 149 µM.
`O=C(O)C[C@@H](O)C(=O)O` [D-MAL, D-malate] gave a Kd in experiment [2] of 799 µM.
Compound `O=C(O)CCC(=O)C(=O)O` [2-OG, 2-oxoglutarate] registered a Kd in experiment [3] of 7000 µM.
For the compound `C[C@@H](O)C(=O)O` [D-LAC, D-lactate], the affinity in experiment [4], expressed as Kd, was 1620 µM.
